One experiment has as its system BALB/c male mice. In kind it is in vivo, mouse. Conditions: relative index, non-administered control group = 1, 10 mg/kg B.W./day by gavage, 7 days. How it is done:
Five-week-old BALB/c male mice (n=6) were fed for 1 week and then used in this experiment. A commercially-available feed was used, and the mice' access to the feed was unrestricted, and tap water was provided. γ-Glutamylcysteine was dissolved in sterilized physiological saline, and gavage administration was performed at 10 mg/kg B.W./day. The administration period was 7 days. During the administration period, the body weights were measured every day immediately before the administration to determine the dosage. There was no difference between the body weights of the different groups. On day 7 after the start of the test, a necropsy examination was performed. Anesthesia was performed by interperitoneal administration with a pentobarbital formulation. At laparotomy, blood was collected from the abdominal aorta. The small intestinal contents were also collected. Serum was collected from the blood, and the total IgA and total IgG concentrations were measured using an ELISA kit. The intestinal contents were diluted 10-fold with PBS and suspended sufficiently, and centrifugation was then performed to separate the […]. The total IgA concentration was measured by ELISA in the same way as in Example 1. In the table, γ-EC represents γ-glutamylcysteine. […] However, the amounts of serum IgA and serum IgG were found not to increase, and it was confirmed that the peptide was able to stimulate the immunoactivity in the intestinal mucosa.

Experiment [1] concerns mouse spleen cells. The experiment in a line: Antibody production by mouse spleen cells stimulated with LPS (ELISA of culture supernatant). The class given is cell-based. To be noted: 5 μg LPS, cultured 5 days, versus phosphate buffer control, FIG. 1. How it is done: Six- to eight-week-old BALB mice (female) were fed for 1 week a commercially-available solid feed and provided with tap water. To evaluate the influence of γ-glutamylcysteine on antibody production, a culture system using mouse spleen cells was employed. The spleen cells were collected from the BALB-c mice (n=3), then washed and suspended in RPMI 1640 medium (10% FCS, 50 U/ml penicillin, 50 μg/ml streptomycin). The cells were adjusted so that there were 1×10^6 cells per 48-well culture plate, and then either γ-glutamylcysteine or glutathione (purchased from Sigma) each dissolved in a phosphate buffer, was added to the plates. A phosphate buffer was added to plates as a control. Then, the cells were stimulated with 5 μg of LPS (lipopolysaccharide, obtained from Sigma). […] The cells were then cultured in a CO2 incubator at 37° C. for 5 days, and the amounts of the antibodies in the supernatant were analyzed. The amounts of IgA and IgG were measured by the ELISA method. […] The reaction was stopped with 100 μl of 3 M NaOH/well, and the absorbance was measured at 405 nm. IgA was measured in accordance with the same method as for IgG except that a rat anti-mouse IgA antibody (BD Biosciences) was used as the immobilized antibody. […]
(In general: ELISA stands for enzyme-linked immunosorbent assay.)

The test system of experiment [2] is mouse spleen cells. The experiment is described as follows: Antibody production by mouse spleen cells stimulated with ConA (ELISA of culture supernatant). The class given is cell-based. Conditions: 0.5 μg ConA, cultured 5 days, versus control, FIG. 3. The procedure: Six- to eight-week-old BALB mice (female) were fed for 1 week a commercially-available solid feed and provided with tap water. To evaluate the influence of γ-glutamylcysteine on antibody production, a culture system using mouse spleen cells was employed. The spleen cells were collected from the BALB-c mice (n=3), then washed and suspended in RPMI 1640 medium (10% FCS, 50 U/ml penicillin, 50 μg/ml streptomycin). The cells were adjusted so that there were 1×10^6 cells per 48-well culture plate, and then either γ-glutamylcysteine or glutathione (purchased from Sigma) each dissolved in a phosphate buffer, was added to the plates. A phosphate buffer was added to plates as a control. […] The cells were again adjusted so that there were 1×10^6 cells per 48-well culture plate, and then stimulated with 0.5 μg of ConA (concanavalin A) in the presence or absence of γ-glutamylcysteine or glutathione. The cells were then cultured in a CO2 incubator at 37° C. for 5 days, and the amounts of the antibodies in the supernatant were analyzed. The amounts of IgA and IgG were measured by the ELISA method. The method for measuring IgG is described below. […] The reaction was stopped with 100 μl of 3 M NaOH/well, and the absorbance was measured at 405 nm. IgA was measured in accordance with the same method as for IgG except that a rat anti-mouse IgA antibody (BD Biosciences) was used as the immobilized antibody. […]

The values that follow come from patent US20110034397A1, “INTESTINAL IMMUNE SYSTEM STIMULATOR” (priority 2008, published 2011).

Turning to `N[C@@H](CCC(=O)N[C@@H](CS)C(=O)O)C(=O)O` [γ-glutamylcysteine, γ-Glutamylcysteine], in the experiment on BALB/c male mice, the “Serum IgA” value is recorded as 0.3 and the “Serum IgG” value is 0.6. Besides, the “Small intestine IgA” value in the experiment on BALB/c male mice (total IgA in small intestinal contents) is reported as 3.0. Moreover, the “amounts of IgA produced” value in the experiment with mouse spleen cells [1] was “increase production of IgA as compared with glutathione”. For the same molecule, the “amounts of IgA produced” value with mouse spleen cells [2] is given as “increase production of IgA as compared with glutathione”.
